Experimental data as given in publication PMC9145193 (Molecules, 2022).

The compounds below were run against T1, AChE enzyme from electrophorus electricus (eeAChE) (Electrophorus electricus, UniProt O42275) (assay: biochemical). Conditions: mean ± SEM from three independent experiments.
T1 construct: purchased Merck C3389
Description: Donepezil was used as a positive control.
AChE activity was measured by the […] using AChE enzyme from electrophorus electricus (eeAChE) (C3389, Merck, Kenilworth, NJ, USA). AChE solution (2 U/mL) was prepared with 0.1 M phosphate buffer (pH 8.0) firstly. Varied concentrations of test compounds (20 μL), 1 mM 5′-dithiobis (2-nitrobenzoic acid) (DTNB) solution (100 μL), and AChE solution (40 μL) were added in order to each well of a 96-well plate. After incubation for 15 min at 37 °C, the reaction was initiated by adding 20 μL of acetylthiocholine iodide (1 mM) to the mixed solution. The absorbance of each plate was instantly measured at 405 nm using a microplate reader. The inhibition of each compound was estimated using the formula (1−Ai/Ac) × 100, where Ai and Ac represent the absorbance of AChE in the presence and absence of inhibitors, respectively. Each experiment was replicated three times. Plotting curves of log concentration via percentage of inhibition, the IC50 values of all tested compounds were graphically analyzed (Graph Pad Prism 8.0).

T1 sequence (O42275 24-633): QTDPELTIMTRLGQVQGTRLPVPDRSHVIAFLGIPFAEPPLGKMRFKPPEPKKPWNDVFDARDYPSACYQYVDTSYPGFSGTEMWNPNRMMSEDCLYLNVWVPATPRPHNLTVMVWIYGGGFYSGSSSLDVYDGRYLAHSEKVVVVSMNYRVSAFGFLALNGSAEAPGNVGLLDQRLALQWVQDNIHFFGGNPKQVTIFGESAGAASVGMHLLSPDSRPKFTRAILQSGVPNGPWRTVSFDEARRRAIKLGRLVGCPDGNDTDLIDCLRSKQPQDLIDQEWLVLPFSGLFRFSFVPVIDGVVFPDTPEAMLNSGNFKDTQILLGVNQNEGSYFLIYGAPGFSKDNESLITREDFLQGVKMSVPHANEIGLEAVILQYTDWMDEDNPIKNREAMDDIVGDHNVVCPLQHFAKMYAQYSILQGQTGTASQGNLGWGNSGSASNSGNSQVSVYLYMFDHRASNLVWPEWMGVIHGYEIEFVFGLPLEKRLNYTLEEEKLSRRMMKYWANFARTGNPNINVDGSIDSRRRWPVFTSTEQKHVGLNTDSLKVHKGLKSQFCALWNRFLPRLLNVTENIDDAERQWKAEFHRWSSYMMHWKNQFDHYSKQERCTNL

Row | Structure (SMILES) | IC50 [nM]
1 | COc1cc2c(cc1OC)C(=O)/C(=C/c1cc[n+](Cc3ccccc3F)cc1C(C)=O)OC2 [10b, (Z)-3-Acetyl-4-((6,7-dimethoxy-4-oxoisochroman-3-ylidene)methyl)-1-(2-fluorobenzyl)pyridin-1-ium Bromide] | 3.32 ± 0.21
2 | COc1cc2c(cc1OC)C(=O)/C(=C/c1cc[n+](Cc3cccc(F)c3)cc1C(C)=O)OC2 [10c, (Z)-3-Acetyl-4-((6,7-dimethoxy-4-oxoisochroman-3-ylidene)methyl)-1-(3-fluorobenzyl)pyridin-1-ium Bromide] | 4.03 ± 0.23
3 | COc1cc2c(cc1OC)C(=O)/C(=C/c1cc[n+](Cc3ccc(F)cc3)cc1C(C)=O)OC2 [10d, (Z)-3-Acetyl-4-((6,7-dimethoxy-4-oxoisochroman-3-ylidene)methyl)-1-(4-fluorobenzyl)pyridin-1-ium Bromide] | 7.69 ± 0.35
4 | COc1cc2c(cc1OC)C(=O)/C(=C/c1cc[n+](Cc3ccccc3Cl)cc1C(C)=O)OC2 [10e, (Z)-3-Acetyl-1-(2-chlorobenzyl)-4-((6,7-dimethoxy-4-oxoisochroman-3-ylidene)methyl)pyridin-1-ium Bromide] | 5.86 ± 0.86
5 | COc1cc2c(cc1OC)C(=O)/C(=C/c1cc[n+](Cc3cccc(Cl)c3)cc1C(C)=O)OC2 [10f, (Z)-3-Acetyl-1-(3-chlorobenzyl)-4-((6,7-dimethoxy-4-oxoisochroman-3-ylidene)methyl)pyridin-1-ium Bromide] | 10.3 ± 1.08
6 | COc1cc2c(cc1OC)C(=O)/C(=C/c1cc[n+](Cc3ccc(Cl)cc3)cc1C(C)=O)OC2 [10g, (Z)-3-Acetyl-1-(4-chlorobenzyl)-4-((6,7-dimethoxy-4-oxoisochroman-3-ylidene)methyl)pyridin-1-ium Bromide] | 67.3 ± 2.68
7 | COc1cc2c(cc1OC)C(=O)/C(=C/c1cc[n+](Cc3ccccc3Br)cc1C(C)=O)OC2 [10h, (Z)-3-Acetyl-1-(2-bromobenzyl)-4-((6,7-dimethoxy-4-oxoisochroman-3-ylidene)methyl)pyridin-1-ium Bromide] | 6.22 ± 0.05
8 | COc1cc2c(cc1OC)C(=O)/C(=C/c1cc[n+](Cc3cccc(Br)c3)cc1C(C)=O)OC2 [10i, (Z)-3-Acetyl-1-(3-bromobenzyl)-4-((6,7-dimethoxy-4-oxoisochroman-3-ylidene)methyl)pyridin-1-ium Bromide] | 11 ± 0.82
9 | COc1cc2c(cc1OC)C(=O)/C(=C/c1cc[n+](Cc3ccc(Br)cc3)cc1C(C)=O)OC2 [10j, (Z)-3-Acetyl-1-(4-bromobenzyl)-4-((6,7-dimethoxy-4-oxoisochroman-3-ylidene)methyl)pyridin-1-ium Bromide] | 75.7 ± 3.18
10 | COc1cc2c(cc1OC)C(=O)/C(=C/c1cc[n+](Cc3ccccc3C)cc1C(C)=O)OC2 [10k, (Z)-3-Acetyl-4-((6,7-dimethoxy-4-oxoisochroman-3-ylidene)methyl)-1-(2-methylbenzyl)pyridin-1-ium Bromide] | 4.8 ± 0.26
11 | COc1cc2c(cc1OC)C(=O)/C(=C/c1cc[n+](Cc3cccc(C)c3)cc1C(C)=O)OC2 [10l, (Z)-3-Acetyl-4-((6,7-dimethoxy-4-oxoisochroman-3-ylidene)methyl)-1-(3-methylbenzyl)pyridin-1-ium Bromide] | 6.61 ± 0.81
12 | COc1cc2c(cc1OC)C(=O)/C(=C/c1cc[n+](Cc3ccc(C)cc3)cc1C(C)=O)OC2 [10m, (Z)-3-Acetyl-4-((6,7-dimethoxy-4-oxoisochroman-3-ylidene)methyl)-1-(4-methylbenzyl)pyridin-1-ium Bromide] | 54.1 ± 3.22
13 | COc1cc2c(cc1OC)C(=O)/C(=C/c1cc[n+](Cc3ccccc3[N+](=O)[O-])cc1C(C)=O)OC2 [10n, (Z)-3-Acetyl-4-((6,7-dimethoxy-4-oxoisochroman-3-ylidene)methyl)-1-(2-nitrobenzyl)pyridin-1-ium Bromide] | 13.6 ± 0.72
14 | COc1cc2c(cc1OC)C(=O)/C(=C/c1cc[n+](Cc3cccc([N+](=O)[O-])c3)cc1C(C)=O)OC2 [10o, (Z)-3-Acetyl-4-((6,7-dimethoxy-4-oxoisochroman-3-ylidene)methyl)-1-(3-nitrobenzyl)pyridin-1-ium Bromide] | 22.4 ± 1.25
15 | COc1cc2c(cc1OC)C(=O)/C(=C/c1cc[n+](Cc3ccc([N+](=O)[O-])cc3)cc1C(C)=O)OC2 [10p, (Z)-3-Acetyl-4-((6,7-dimethoxy-4-oxoisochroman-3-ylidene)methyl)-1-(4-nitrobenzyl)pyridin-1-ium Bromide] | 129 ± 2.68
16 | COc1cc2c(cc1OC)C(=O)/C(=C/c1cc[n+](Cc3ccccc3C(F)(F)F)cc1C(C)=O)OC2 [10q, (Z)-3-Acetyl-4-((6,7-dimethoxy-4-oxoisochroman-3-ylidene)methyl)-1-(2-(trifluoromethyl)benzyl)pyridin-1-ium Bromide] | 18.9 ± 1.16

Row | Structure (SMILES) | IC50 [nM]
17 | COc1cc2c(cc1OC)C(=O)/C(=C/c1cc[n+](Cc3cccc(C(F)(F)F)c3)cc1C(C)=O)OC2 [10r, (Z)-3-Acetyl-4-((6,7-dimethoxy-4-oxoisochroman-3-ylidene)methyl)-1-(3-(trifluoromethyl)benzyl)pyridin-1-ium Bromide] | 25.3 ± 2.2
18 | COc1cc2c(cc1OC)C(=O)/C(=C/c1cc[n+](Cc3ccc(C(F)(F)F)cc3)cc1C(C)=O)OC2 [10s, (Z)-3-Acetyl-4-((6,7-dimethoxy-4-oxoisochroman-3-ylidene)methyl)-1-(4-(trifluoromethyl)benzyl)pyridin-1-ium Bromide] | 326 ± 9.01
19 | COc1cc2c(cc1OC)C(=O)/C(=C/c1cc[n+](Cc3ccccc3)cc1C(N)=O)OC2 [13a, (Z)-1-Benzyl-3-carbamoyl-4-((6,7-dimethoxy-4-oxoisochroman-3-ylidene)methyl)pyridin-1-ium Bromide] | 8.63 ± 0.06
20 | COc1cc2c(cc1OC)C(=O)/C(=C/c1cc[n+](Cc3cccc(F)c3)cc1C(N)=O)OC2 [13c, (Z)-3-Carbamoyl-4-((6,7-dimethoxy-4-oxoisochroman-3-ylidene)methyl)-1-(3-fluorobenzyl)pyridin-1-ium Bromide] | 6.02 ± 0.08
21 | COc1cc2c(cc1OC)C(=O)/C(=C/c1cc[n+](Cc3ccc(F)cc3)cc1C(N)=O)OC2 [13d, (Z)-3-Carbamoyl-4-((6,7-dimethoxy-4-oxoisochroman-3-ylidene)methyl)-1-(4-fluorobenzyl)pyridin-1-ium Bromide] | 8.25 ± 0.13
22 | COc1cc2c(cc1OC)C(=O)/C(=C/c1cc[n+](Cc3ccccc3Cl)cc1C(N)=O)OC2 [13e, (Z)-3-Carbamoyl-1-(2-chlorobenzyl)-4-((6,7-dimethoxy-4-oxoisochroman-3-ylidene)methyl)pyridin-1-ium Bromide] | 17.6 ± 0.3
23 | COc1cc2c(cc1OC)C(=O)/C(=C/c1cc[n+](Cc3cccc(Cl)c3)cc1C(N)=O)OC2 [13f, (Z)-3-Carbamoyl-1-(3-chlorobenzyl)-4-((6,7-dimethoxy-4-oxoisochroman-3-ylidene)methyl)pyridin-1-ium Bromide] | 26.7 ± 0.28
24 | COc1cc2c(cc1OC)C(=O)/C(=C/c1cc[n+](Cc3ccc(Cl)cc3)cc1C(N)=O)OC2 [13g, (Z)-3-Carbamoyl-1-(4-chlorobenzyl)-4-((6,7-dimethoxy-4-oxoisochroman-3-ylidene)methyl)pyridin-1-ium Bromide] | 188 ± 4.78
25 | COc1cc2c(cc1OC)C(=O)/C(=C/c1cc[n+](Cc3ccccc3Br)cc1C(N)=O)OC2 [13h, (Z)-1-(2-Bromobenzyl)-3-carbamoyl-4-((6,7-dimethoxy-4-oxoisochroman-3-ylidene)methyl)pyridin-1-ium Bromide] | 21.7 ± 0.32
26 | COc1cc2c(cc1OC)C(=O)/C(=C/c1cc[n+](Cc3cccc(Br)c3)cc1C(N)=O)OC2 [13i, (Z)-1-(3-Bromobenzyl)-3-carbamoyl-4-((6,7-dimethoxy-4-oxoisochroman-3-ylidene)methyl)pyridin-1-ium Bromide] | 38.1 ± 0.92
27 | COc1cc2c(cc1OC)C(=O)/C(=C/c1cc[n+](Cc3ccc(Br)cc3)cc1C(N)=O)OC2 [13j, (Z)-1-(4-Bromobenzyl)-3-carbamoyl-4-((6,7-dimethoxy-4-oxoisochroman-3-ylidene)methyl)pyridin-1-ium Bromide] | 422 ± 5.92
28 | COc1cc2c(cc1OC)C(=O)/C(=C/c1cc[n+](Cc3ccccc3C)cc1C(N)=O)OC2 [13k, (Z)-3-Carbamoyl-4-((6,7-dimethoxy-4-oxoisochroman-3-ylidene)methyl)-1-(2-methylbenzyl)pyridin-1-ium Bromide] | 12.1 ± 0.9
29 | COc1cc2c(cc1OC)C(=O)/C(=C/c1cc[n+](Cc3cccc(C)c3)cc1C(N)=O)OC2 [13l, (Z)-3-Carbamoyl-4-((6,7-dimethoxy-4-oxoisochroman-3-ylidene)methyl)-1-(3-methylbenzyl)pyridin-1-ium Bromide] | 16.26 ± 0.12
30 | COc1cc2c(cc1OC)C(=O)/C(=C/c1cc[n+](Cc3ccc(C)cc3)cc1C(N)=O)OC2 [13m, (Z)-3-Carbamoyl-4-((6,7-dimethoxy-4-oxoisochroman-3-ylidene)methyl)-1-(4-methylbenzyl)pyridin-1-ium Bromide] | 42.47 ± 0.25
31 | COc1cc2c(cc1OC)C(=O)/C(=C/c1cc[n+](Cc3ccccc3C(F)(F)F)cc1C(N)=O)OC2 [13n, (Z)-3-Carbamoyl-4-((6,7-dimethoxy-4-oxoisochroman-3-ylidene)methyl)-1-(2-(trifluoromethyl)benzyl)pyridin-1-ium Bromide] | 30.7 ± 0.71
32 | COc1cc2c(cc1OC)C(=O)/C(=C/c1cc[n+](Cc3cccc(C(F)(F)F)c3)cc1C(N)=O)OC2 [13o, (Z)-3-Carbamoyl-4-((6,7-dimethoxy-4-oxoisochroman-3-ylidene)methyl)-1-(3-(trifluoromethyl)benzyl)pyridin-1-ium Bromide] | 43 ± 0.44
